Reference: ChEMBL document CHEMBL3400000, “The discovery of potent agonists for GPR88, an orphan GPCR, for the potential treatment of CNS disorders” (Bioorg Med Chem Lett, 2015)
pEC50: −log10 of the molar value.

Biological target: G protein-coupled receptor 88 (Homo sapiens, UniProt Q9GZN0)
Assay: Agonist activity at GPR88 (unknown origin) transfected into cells assessed as cAMP accumulation by HTRF assay
Assay type: functional

Chain of G protein-coupled receptor 88 (Q9GZN0 whole entry): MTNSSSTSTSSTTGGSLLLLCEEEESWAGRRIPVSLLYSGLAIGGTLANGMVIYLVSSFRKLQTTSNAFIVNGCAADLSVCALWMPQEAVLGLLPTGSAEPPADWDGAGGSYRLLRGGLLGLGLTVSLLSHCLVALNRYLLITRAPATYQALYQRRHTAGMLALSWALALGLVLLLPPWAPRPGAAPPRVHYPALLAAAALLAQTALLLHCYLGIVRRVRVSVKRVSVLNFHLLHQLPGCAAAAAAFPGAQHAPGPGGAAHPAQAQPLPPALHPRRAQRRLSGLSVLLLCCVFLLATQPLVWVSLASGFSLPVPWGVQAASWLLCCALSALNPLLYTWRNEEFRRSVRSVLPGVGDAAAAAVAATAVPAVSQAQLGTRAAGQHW

| Structure (SMILES) | pEC50 |
| --- | --- |
| CC(C)C[C@H](N)CN(C(=O)[C@@H]1C[C@H]1c1ccccc1)c1ccc(-c2ccc(C#N)cc2)cc1 | 6.17 |
| CC(C)C[C@H](N)CN(C(=O)[C@@H]1C[C@H]1c1ccccc1)c1ccc(-c2cccc(C#N)c2)cc1 | 5.35 |
| CC(C)C[C@H](N)CN(C(=O)[C@@H]1C[C@H]1c1ccccc1)c1ccc(-c2ccc(Cl)cc2)cc1 | 6.19 |
| CC(C)C[C@H](N)CN(C(=O)[C@@H]1C[C@H]1c1ccccc1)c1ccc(-c2ccccc2Cl)cc1 | 5.42 |
| CC[C@H](C)[C@H](N)CN(C(=O)[C@@H]1C[C@H]1c1ccccc1)c1ccc(-c2ccccc2)cc1 | 6.64 |
| CCc1ccc(-c2ccc(N(C[C@@H](N)[C@@H](C)CC)C(=O)[C@@H]3C[C@H]3c3ccccc3)cc2)cc1 | 7.36 |
| CCCc1ccc(-c2ccc(N(C[C@@H](N)[C@@H](C)CC)C(=O)[C@@H]3C[C@H]3c3ccccc3)cc2)cc1 | 7.21 |
| CC[C@H](C)[C@H](N)CN(C(=O)[C@@H]1C[C@H]1c1ccccc1)c1ccc(-c2ccc(C(C)(C)C)cc2)cc1 | 6.12 |
| CC[C@H](C)[C@H](N)CN(C(=O)[C@@H]1C[C@H]1c1ccccc1)c1ccc(-c2ccc(C(F)(F)F)cc2)cc1 | 6.47 |
| CC[C@H](C)[C@H](N)CN(C(=O)[C@@H]1C[C@H]1c1ccccc1)c1ccc(-c2ccc(OC(C)C)cc2)cc1 | 7.14 |
| CCOc1ccc(-c2ccc(N(C[C@@H](N)[C@@H](C)CC)C(=O)[C@@H]3C[C@H]3c3ccccc3)cc2)cc1 | 7.05 |
| CC[C@H](C)[C@H](N)CN(C(=O)[C@@H]1C[C@H]1c1ccccc1)c1ccc(-c2ccc(OC)cc2)cc1 | 6.92 |
| CC[C@H](C)[C@H](N)CN(C(=O)[C@@H]1C[C@H]1c1ccccc1)c1ccc(-c2ccc(Oc3ccccc3)cc2)cc1 | 7.03 |
| CC[C@H](C)[C@H](N)CN(C(=O)[C@@H]1C[C@H]1c1ccccc1)c1ccc(-c2ccc(OC(F)(F)F)cc2)cc1 | 6.77 |
| CC[C@H](C)[C@H](N)CN(C(=O)[C@@H]1C[C@H]1c1ccccc1)c1ccc(-c2ccc(COC)cc2)cc1 | 7.46 |
| CC[C@H](C)[C@H](N)CN(C(=O)[C@@H]1C[C@H]1c1ccccc1)c1ccc(-c2ccc(COC(C)(C)C)cc2)cc1 | 6.55 |
| CC[C@H](C)[C@H](N)CN(C(=O)[C@@H]1C[C@H]1c1ccccc1)c1ccc(-c2ccc(CO)cc2)cc1 | 5.96 |
| CC[C@H](C)[C@H](N)CN(C(=O)[C@@H]1C[C@H]1c1ccccc1)c1ccc(-c2ccc(CC(=O)OC)cc2)cc1 | 7.18 |
| CC[C@H](C)[C@H](N)CN(C(=O)[C@@H]1C[C@H]1c1ccccc1)c1ccc(-c2ccc(CCC(=O)OC)cc2)cc1 | 6.96 |
| CCOC(=O)c1ccc(-c2ccc(N(C[C@@H](N)[C@@H](C)CC)C(=O)[C@@H]3C[C@H]3c3ccccc3)cc2)cc1 | 6.59 |
| CC[C@H](C)[C@H](N)CN(C(=O)[C@@H]1C[C@H]1c1ccccc1)c1ccc(-c2ccc(C(=O)N(C)C)cc2)cc1 | 6.01 |
| CC[C@H](C)[C@H](N)CN(C(=O)[C@@H]1C[C@H]1c1ccccc1)c1ccc(-c2ccc(N)cc2)cc1 | 6.49 |
| CC[C@H](C)[C@H](N)CN(C(=O)[C@@H]1C[C@H]1c1ccccc1)c1ccc(-c2ccc(NS(C)(=O)=O)cc2)cc1 | 5.92 |
| CC[C@H](C)[C@H](N)CN(C(=O)[C@@H]1C[C@H]1c1ccccc1)c1ccc(-c2ccc(NC(C)=O)cc2)cc1 | 5.26 |
| CC[C@H](C)[C@H](N)CN(C(=O)[C@@H]1C[C@H]1c1ccccc1)c1ccc(-c2ccc(CN(C)C)cc2)cc1 | 6.34 |
| CC[C@H](C)[C@H](N)CN(C(=O)[C@@H]1C[C@H]1c1ccccc1)c1ccc(-c2ccc(CNC)cc2)cc1 | 5.19 |
| CC[C@H](C)[C@H](N)CN(C(=O)[C@@H]1C[C@H]1c1ccccc1)c1ccc(-c2ccc(CN)cc2)cc1 | < 4.52 |
| CC[C@H](C)[C@H](N)CN(C(=O)[C@H]1C[C@@H]1c1ccccn1)c1ccc(-c2ccc(COC)cc2)cc1 | 5.92 |
| CC[C@H](C)[C@H](N)CN(C(=O)[C@@H]1C[C@H]1c1ccccn1)c1ccc(-c2ccc(COC)cc2)cc1 | 7.82 |
| CC[C@H](C)[C@H](N)CN(C(=O)[C@@H]1C[C@H]1c1ccccn1)c1ccc(-c2ccc(OC(C)C)cc2)cc1 | 8.46 |
